Measurements reported in patent US7534785B2, “3,6-dihydro-2-oxo-6H-1,3,4,-thiadiazine derivatives” (Merck Patent Gesellschaft, priority 2005, dated 2009).

Target: T1, Met kinase (Homo sapiens, UniProt P08581)
T1 construct: 6His (N); purchased Upstate 14-526; host or cells: Sf21 insect cells (S. frugiperda), baculovirus
Experiment: Met kinase inhibition, flashplate method
Format: biochemical
Details: 1 μM ATP, substrate pAGLT, 3 hrs at room temperature, read-out: IC50 (enzyme)
Text: According to the manufacturer's data (Met, active, upstate, catalogue No. 14-526), Met kinase is expressed for the purposes of protein production in insect cells (Sf21; S. frugiperda) and subsequent affinity-chromatographic purification as “N-terminal 6His-tagged” recombinant human protein in a baculovirus expression vector.
The test plates used are 96-well Flashplate® microtitre plates from Perkin Elmer (Cat. No. SMP200). The components of the kinase reaction described below are pipetted into the assay plate. The Met kinase and the substrate poly Ala-Glu-Lys-Tyr, (pAGLT, 6:2:5:1), are incubated for 3 hrs at room temperature with radioactively labelled ^33P-ATP in the presence and absence of test substances in a total volume of 100 μl. The reaction is terminated using 150 μl of a 60 mM EDTA solution. After incubation for a further 30 min at room temperature, the supernatants are filtered off with suction, and the wells are washed three times with 200 μl of 0.9% NaCl solution each time. The measurement of the bound radioactivity is carried out by means of a scintillation measuring instrument (Topcount NXT, Perkin-Elmer).
The full value used is the inhibitor-free kinase reaction. This should be approximately in the range 6000-9000 cpm. The pharmacological zero value used is staurosporin in a final concentration of 0.1 mM. The inhibitory values (IC50) are determined using the RS1_MTS program.
Kinase Reaction Conditions per Well: • 30 μl of assay buffer • 10 μl of substance to be tested in assay buffer with 10% of DMSO • 10 μl of ATP (final concentration 1 μM cold, 0.35 μCi of ^33P-ATP) • 50 μl of Met kinase/substrate mixture in assay buffer; • (10 ng of enzyme/well, 50 ng of pAGLT/well)
Solutions Used: • Assay Buffer: • 50 mM HEPES • 3 mM magnesium chloride • 3 μM sodium orthovanadate • 3 mM manganese(II) chloride • 1 mM dithiothreitol (DTT) • pH=7.5 (to be set using sodium hydroxide) • Stop Solution: • 60 mM Titriplex III (EDTA) • ^33P-ATP: Perkin-Elmer; • Met kinase: Upstate, Cat. No. 14-526, Stock 1 μg/10 μl; spec. activity 954 U/mg; • Poly-Ala-Glu-Lys-Tyr, 6:2:5:1:Sigma Cat. No. P1152

T1 sequence (P08581 25-1390): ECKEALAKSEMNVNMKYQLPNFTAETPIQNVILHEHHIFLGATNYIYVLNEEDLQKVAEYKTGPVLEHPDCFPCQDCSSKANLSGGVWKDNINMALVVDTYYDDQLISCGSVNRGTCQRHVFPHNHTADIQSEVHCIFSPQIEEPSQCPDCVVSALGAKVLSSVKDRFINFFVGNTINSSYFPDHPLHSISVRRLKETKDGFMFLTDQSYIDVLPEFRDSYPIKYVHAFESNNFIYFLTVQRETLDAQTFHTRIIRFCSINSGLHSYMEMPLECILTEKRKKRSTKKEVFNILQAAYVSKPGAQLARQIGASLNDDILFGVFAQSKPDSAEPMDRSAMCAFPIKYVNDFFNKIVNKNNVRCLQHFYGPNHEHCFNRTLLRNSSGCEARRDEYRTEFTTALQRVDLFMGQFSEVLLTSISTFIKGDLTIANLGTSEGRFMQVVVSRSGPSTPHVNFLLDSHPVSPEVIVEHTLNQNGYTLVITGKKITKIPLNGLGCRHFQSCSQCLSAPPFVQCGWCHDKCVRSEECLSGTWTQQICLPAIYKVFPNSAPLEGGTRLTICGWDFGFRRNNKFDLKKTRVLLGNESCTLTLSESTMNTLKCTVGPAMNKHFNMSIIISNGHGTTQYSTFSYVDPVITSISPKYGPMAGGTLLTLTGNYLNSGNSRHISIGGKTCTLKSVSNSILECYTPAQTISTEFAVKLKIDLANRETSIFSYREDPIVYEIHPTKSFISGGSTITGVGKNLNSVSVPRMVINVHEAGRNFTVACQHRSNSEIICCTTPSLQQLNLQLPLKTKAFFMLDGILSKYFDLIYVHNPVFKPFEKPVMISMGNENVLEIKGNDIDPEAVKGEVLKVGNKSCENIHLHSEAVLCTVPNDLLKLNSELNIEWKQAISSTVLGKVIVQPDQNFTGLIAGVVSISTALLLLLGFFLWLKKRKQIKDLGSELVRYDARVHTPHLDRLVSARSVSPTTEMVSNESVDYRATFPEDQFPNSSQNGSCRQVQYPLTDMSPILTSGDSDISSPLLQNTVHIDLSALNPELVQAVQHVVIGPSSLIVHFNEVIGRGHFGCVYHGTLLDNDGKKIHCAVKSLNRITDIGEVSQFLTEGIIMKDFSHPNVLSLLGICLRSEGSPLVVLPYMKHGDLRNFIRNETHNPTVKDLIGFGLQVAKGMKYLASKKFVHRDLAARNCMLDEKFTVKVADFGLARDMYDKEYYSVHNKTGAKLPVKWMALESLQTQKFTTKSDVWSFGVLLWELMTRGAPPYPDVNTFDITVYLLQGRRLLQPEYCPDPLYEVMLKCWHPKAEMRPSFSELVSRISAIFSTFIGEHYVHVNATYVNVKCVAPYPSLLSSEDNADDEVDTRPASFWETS

SMILES | IC50 [µM]
CN1CCC(CNC(=O)Nc2cccc(CN3N=C(c4ccc(Cl)cc4)CSC3=O)c2)C1 (centres unmarked) [Compound A1, 1-{3-[5-(4-chlorophenyl)-2-oxo-6H-1,3,4-thiadiazin-3-ylmethyl]phenyl}-3-(1-methylpyrrolidin-3-ylmethyl)urea] | 0.01 to 1
CNCCNC(=O)Nc1cccc(CN2N=C(c3ccc(C#N)cc3)CSC2=O)c1 [Compound A10] | 0.01 to 1
CCNC(=O)Nc1cccc(CN2N=C(c3cc(Cl)ccc3O)CSC2=O)c1 [Compound A2] | 0.01 to 1
CCOC(=O)C(=O)Nc1cccc(CN2N=C(c3ccc(Cl)cc3)CSC2=O)c1 [Compound A9, ethyl N-{3-[5-(4-chlorophenyl)-2-oxo-6H-1,3,4-thiadiazin-3-ylmethyl]phenyl}oxalaminate] | 0.01 to 1
C[C@H](O)CNC(=O)Nc1cccc(CN2N=C(c3ccc(Cl)cc3)CSC2=O)c1 [Compound A4] | 0.01 to 1
CCN(CC)CCCNC(=O)Nc1cccc(CN2N=C(c3ccc(Cl)cc3)CSC2=O)c1 [Compound A3] | 0.01 to 1
CN(C)C(=O)Nc1cccc(CN2N=C(c3cc(Cl)ccc3O)CSC2=O)c1 [Compound A12] | 0.01 to 1
O=C(NCCO)Nc1cccc(CN2N=C(c3ccc(Cl)cc3)CSC2=O)c1 [Compound A5] | 0.01 to 1
